Source: patent US7763596B2, “Selective glucocorticoid receptor agonists” (The University of Manchester, priority 2000, dated 2010)
“Also recorded” adds a separate entry of the source.

Columns and labels:
Type in all cases: cell-based
[1] = target: T1, glucocorticoid receptor (Homo sapiens, UniProt P04150); experiment: Transrepression assay using artificially expressed glucocorticoid receptor and P65 in the COS 7 cell line (NRE luciferase); design: expressed in transfected cells; host or cells: COS 7 (African green monkey kidney, deficient in endogenous GR); conditions: 1, 10 and 100 nM
T1 sequence (P04150 1-777): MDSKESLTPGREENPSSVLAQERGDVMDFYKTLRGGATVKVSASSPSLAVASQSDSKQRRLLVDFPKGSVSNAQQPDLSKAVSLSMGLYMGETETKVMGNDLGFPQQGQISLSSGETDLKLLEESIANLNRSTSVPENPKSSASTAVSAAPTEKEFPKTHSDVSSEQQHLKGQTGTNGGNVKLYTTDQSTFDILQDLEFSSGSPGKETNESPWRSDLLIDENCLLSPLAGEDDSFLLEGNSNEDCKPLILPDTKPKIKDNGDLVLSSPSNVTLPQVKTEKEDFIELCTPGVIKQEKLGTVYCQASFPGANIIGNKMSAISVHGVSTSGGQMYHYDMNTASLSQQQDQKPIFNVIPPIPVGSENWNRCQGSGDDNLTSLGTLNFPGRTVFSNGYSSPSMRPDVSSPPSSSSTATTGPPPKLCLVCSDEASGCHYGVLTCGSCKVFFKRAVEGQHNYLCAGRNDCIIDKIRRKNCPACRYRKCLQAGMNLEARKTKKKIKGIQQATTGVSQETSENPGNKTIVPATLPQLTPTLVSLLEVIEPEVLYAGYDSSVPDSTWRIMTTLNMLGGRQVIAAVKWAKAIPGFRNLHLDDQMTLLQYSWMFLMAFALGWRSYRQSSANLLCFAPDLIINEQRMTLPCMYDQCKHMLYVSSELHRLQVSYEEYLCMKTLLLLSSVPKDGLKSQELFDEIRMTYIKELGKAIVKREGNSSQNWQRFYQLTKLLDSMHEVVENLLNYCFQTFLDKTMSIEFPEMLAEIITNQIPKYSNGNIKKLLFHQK
Protocol: (§1) All transfections were performed using lipofectamine plus (Gibco BRL), according to the manufacturers' instructions, as previously described^1. Briefly, all cells were seeded at 5×10^5 per 10 cm tissue culture plate 18 hours before transfection, the next day the relevant plasmids were mixed with serum free medium and “Plus” reagent (Gibco BRL) and incubated for 15 mins, lipofectamine reagent was added and the mix was incubated for a further 15 mins, this mix was added to the cells on serum free medium in the 10 cm tissue culture plates and left for 3 hours, the cells were then trypsinised and divided into 24 well plates, the cells were left to recover overnight and were treated with steroid for 16 hours before harvest. All experiments were performed from one transfection in triplicate and on separate occasions with similar results.
(§2) The firefly luciferase gene catalyses the production of light from the substrate luciferin. When plasmid constructs containing this gene are transfected into cell lines the activity of the gene can be assessed by the intensity of the luminesence. The luciferase assay yields luminescence through an ATP-dependent oxidation of luciferin the amount of light produced can be measured by a luminometer and is a measure of gene activity (Davis, 1996). Light intensity was measured in a Luminometer (LB 9501, Berthold). The light intensity should be proportional to luciferase concentration in the range of 10^−16M (10 μg/L) to 10^−8M (1 mg/L). To measure the luminescence of the treated cells 150 μl of 1× reporter lysis buffer (RLB: 25 mM Tris phosphate pH7.8, 10 mM MgCl2, 15% Glycerol, 1% Triton, 1 mM EDTA) was added to the 24 well plates to lyse the cells and incubated at room temperature for 30 mins whilst being shaken. Then 100 μl of the room temperature cell extract were mixed with 100 μl of room temperature Luciferase Assay Reagent (LAR: 1 mM ATP, 0.3 mM D-Luciferin, 66% RLB). This reaction was mixed in a luminometer (LB 9501, Berthold) and the light produced was measured for a period of 5 seconds.
To perform this assay the GR and p65 were artificially expressed in a cell line lacking GR and deficient in endogenous P65. The ability of P65 to activate an NFkB response element (NRE) “driving” a luciferase reporter gene could then be repressed by GR in a ligand dependent manner and, therefore, used to measure transrepression.
COS7 cells were transfected with 1 μg pcDNA3-GR and 3 μg NRE-Luc and 200 ng p65 per 10 cm tissue culture dish. The cells were plated out in to 24 well plates after transfection and left for 18 hours to recover before the steroids of FIGS. 1 and 2A were added. After another 18 hour incubation the cells were lysed and a luciferase assay was performed.

[2] = target: T1, glucocorticoid receptor; experiment: Transactivation assay using artificially expressed glucocorticoid receptor in the COS 7 monkey kidney cell line (GRE luciferase); design: expressed in transfected cells; host or cells: COS 7 (African green monkey kidney, deficient in endogenous GR); conditions: for ability to transactivate (luminescence) compared to dexamethasone: 1, 10 and 100 nM, FIGS. 3 and 4; for transactivation potential (luminescence) compared to dexamethasone, repeat experiment: 1, 10, 10 and 500 nM, FIG. 5
Protocol: as §1, §2
In this assay the GR was artificially expressed in a cell line lacking endogenous GR and a glucocorticoid response element (GRE) “driving” a luciferase reporter gene was used to measure ligand dependent activation.
COS7 cells were transfected with 1 μg pcDNA3-GR and 3 μg AH3-Luc per 10 cm tissue culture dish. The cells were plated out in to 24 well plates after transfection and the steroids were added immediately. After 18 hour incubation the cells were lysed and a luciferase assay was performed.

[3] = target: T2, endogenous GR (Homo sapiens, UniProt P04150); experiment: Transrepression assay using endogenous GR in the A549 lung epithelial cell line (TNF, NRE luciferase); conditions: compound G at 1, 10, 100 and 500 nM
T2 construct: This cell line contains functional endogenous GR; endogenous in cells; host or cells: A549
T2 sequence (P04150 1-777): T1 sequence (P04150 1-777)
Text: The A549 cell line (ECACC:86012804) is derived from the human lung epithelial cells from a carcinoma. This cell line contains functional endogenous GR and is stimulated by Tumour Necrosis Factor (TNF) to produce IL-8.
In this assay TNF was used to stimulate NFkB activity in a cell line that expressed endogenous GR. The ability of NFkB to activate an NRE “driving” a luciferase reporter gene could then be repressed by GR in a ligand dependent manner and, therefore, used to measure transrepression.
COS7 cells were transfected with 3 μg NRE-Luc per 10 cm tissue culture dish. The cells were plated out in to 24 well plates after transfection and left for 18 hours to recover before the steroids of FIGS. 1 and 2 were added. Next TNF was added to the samples after 3 hours incubation with the steroids and after another 15 hours the cells were lysed and a luciferase assay was performed.

repression of TNF activation of A549 cells (NRE reporter gene) [3]	Compound	repression of P65 stimulation of an NFkB response element compared with dexamethasone [1]	ability to transactivate (luminescence) compared to dexamethasone [2]	transactivation potential (luminescence) compared to dexamethasone, repeat experiment [2]
	CC1CC2C3CCC4=CC(=O)C=CC4(C)C3(F)C(O)CC2(C)C1(O)C(=O)NCCC(=O)O (stereo not shown) [Q]	no effect at 1 and 10 nM with only a negligible repression at 100 nM	failed to generate a response at any concentration	
	CC1CC2C3CCC4=CC(=O)C=CC4(C)C3(F)C(O)CC2(C)C1(O)C(=O)NCCCO (stereo not shown) [L]	failed completely to repress P65 function	failed to generate a response at any concentration	
	CCCOC(=O)C1(O)C(C)CC2C3CCC4=CC(=O)C=CC4(C)C3(F)C(O)CC21C (stereo not shown) [R]	failed completely to repress P65 function	failed to generate a response at any concentration	
	CCCCCCNC(=O)OCC(=O)C1(O)C(C)CC2C3CCC4=CC(=O)C=CC4(C)C3(F)C(O)CC21C (stereo not shown) [Compound T]	“left shifted” response and greater maximal repression		“right shifted response” and a reduced maximum compared to dexamethasone
exhibited transrepression	CC1CC2C3CCC4=CC(=O)C=CC4(C)C3(F)C(O)CC2(C)C12OC(C)(C)OCC2=O (stereo not shown) [Compound A]	less potent than dexamethasone but produced the same maximal response at 100 nM		
	Cc1ccc(NC(=O)C2(O)C(C)CC3C4CCC5=CC(=O)C=CC5(C)C4(F)C(O)CC32C)cc1 (stereo not shown) [Compound O]	failed completely to repress P65 function	failed to generate a response at any concentration	
exhibited transrepression	CC1CC2C3CCC4=CC(=O)C=CC4(C)C3(F)C(O)CC2(C)C1(O)C(=O)COC(=O)c1ccc(F)cc1 (stereo not shown) [Compound D]	as potent as dexamethasone	more active in causing transactivation than dexamethasone	

Compound	repression of TNF activation of A549 cells (NRE reporter gene) [3]	repression of P65 stimulation of an NFkB response element compared with dexamethasone [1]	ability to transactivate (luminescence) compared to dexamethasone [2]	transactivation potential (luminescence) compared to dexamethasone, repeat experiment [2]
CCCNC(=O)C1(O)C(C)CC2C3CCC4=CC(=O)C=CC4(C)C3(F)C(O)CC21C (stereo not shown) [Compound G]	repressed at least as well as dexamethasone and also had a “left shifted” response with greater maximal repression	“left shifted” response and greater maximal repression	much less potent and had a lower maximal effect when compared to dexamethasone	“right shifted response” and a reduced maximum compared to dexamethasone; also recorded: lowest overall maximal response
